The test system of test [1] is E. faecalis (NCTC 12697) biofilm. Format: cell-based, Enterococcus faecalis. As to conditions: NCTC 12697, 24 h. How it is done:
The anti-biofilm activities of the peptides against S. aureus (ATCC 6538), MRSA (NCTC 12493), E. faecalis (NCTC 12697), E. coli (ATCC CRM 8739), K. pneumoniae (ATCC 43816), and P. aeruginosa (ATCC CRM 9027), were evaluated. For the MBIC assay, 99 µL of bacterial suspension (5 × 10^5 CFU/mL) was mixed with 1 µL of serial dilutions (from 100 µM to 51,200 µM) of temporin-PKE and its analogues in a 96-well plate, and the plate was incubated in a moist shaking incubator at a speed of 200 rpm at 37 °C for 24 h. For the MBEC assay, 100 µL of bacterial suspension (5 × 10^5 CFU/mL) in each well was seeded in a new 96-well plate, and the plate was put into the same shaking incubator for 24 h incubation to allow biofilm formation on the well. After biofilm formation, the biofilm in the plate was washed with PBS twice. The PBS was aspirated between washes to remove planktonic bacterial cells. The washed biofilm in each well was treated with 100 µL of serial dilutions (from 1 µM to 512 µM) of the test peptides. Then, the plate was incubated in the same shaking incubator for another 24 h. After being washed by PBS twice and fixed with methanol, the biofilm in each well was incubated with 100 µL of 0.1% crystal violet for 30 min, and the stained biofilm was dissolved in 100 µL of glacial acidic acid after drying. The solutions were transferred to a new microplate, and the absorbance of each well was measured using a microplate reader (EL808, Biolise BioTek, Winooski, VT, USA) set to 595 nm wavelength. The MBIC was the minimum concentration of the peptide showing no biofilm formation. The MBEC is the lowest concentration of the peptide capable of eradicating the mature biofilms, which had no biofilm in the well.

Test [2] relates to MRSA (NCTC 12493). The test is described as follows: microbe, parasite or virus in culture. It is filed as cell-based, methicillin-resistant Staphylococcus aureus. To be noted: for MBC: NCTC 12493, 18 h; for MIC: NCTC 12493, 24 h. How it is done: (§1) The antimicrobial activities of peptides were evaluated against the Gram-positive bacteria, S. aureus (ATCC 6538), methicillin-resistant Staphylococcus aureus (MRSA) (NCTC 12493), Enterococcus faecalis (E. faecalis) (NCTC 12697); the Gram-negative bacteria, E. coli (ATCC CRM 8739), Klebsiella pneumoniae (K. pneumoniae) (ATCC 43816), Pseudomonas aeruginosa (P. aeruginosa) (ATCC CRM 9027); and the yeast, Candida albicans (C. albicans) (ATCC CRM 10231). Clinical isolates of MRSA (B042 V2E1 A), E. coli (ATCC BAA-2340), K. pneumoniae (ATCC BAA-1705), and P. aeruginosa (B004 V2S2 B) were also used to determine their antimicrobial activities. The suspension of microorganisms in the logarithmic growth phase with a specific final density (Gram-negative and Gram-positive bacteria: 5 × 10^5 CFU/mL; yeast: 1 × 10^6 CFU/mL) was incubated with different peptide concentrations from 1 µM to 512 µM at 37 °C for 24 h. PBS was used as the negative control, and norfloxacin and amphotericin B were selected as the positive control for bacteria and yeast, respectively. Since the Norfloxacin had weak activities against P. aeruginosa (B004 V2S2 B) and K. pneumoniae (ATCC BAA 1705), gentamicin was used as the positive control for these two bacterial strains. The absorbance of each well was obtained using a microplate reader (EL808, Biolise BioTek, Winooski, VT, USA) set at 550 nm wavelength. The MIC value was the lowest concentration of a peptide that inhibits visible bacterial growth. Once the MIC values were determined, an aliquot from the bacterial culture exposed to the peptide at or above its MIC value was inoculated on a Mueller Hinton agar (MHA) and was incubated at 37 for 18 h. The MBC value was the lowest concentration of a peptide that kills 99.9% of bacteria.

Test [3] relates to MRSA (B042 V2E1 A). Kind of test: microbe, parasite or virus in culture. Format: cell-based, methicillin-resistant Staphylococcus aureus. As to conditions: B042 V2E1 A; for MBC: 18 h; for MIC: 24 h. How it is done: as §1
The subject of test [4] is P. aeruginosa (ATCC CRM 9027). Kind of test: microbe, parasite or virus in culture. Format: cell-based, Pseudomonas aeruginosa. To be noted: for MBC: ATCC CRM 9027, 18 h; for MIC: ATCC CRM 9027, 24 h. How it is done: as §1
Test [5] relates to P. aeruginosa (B004 V2S2 B). The test is described as follows: microbe, parasite or virus in culture. It is filed as cell-based, Pseudomonas aeruginosa. As to conditions: B004 V2S2 B; for MBC: 18 h; for MIC: 24 h. How it is done: as §1
The test system of test [6] is K. pneumoniae (ATCC 43816). It is filed as cell-based, Klebsiella pneumoniae. As to conditions: ATCC 43816, 24 h. As to the method: as §1
According to the procedures in a previous article, the analysis of the sensitivity of the peptides was determined by measuring MIC values in the presence of different types of salts and 10% fetal bovine serum. MRSA (NCTC 12493) and K. pneumoniae (ATCC 43816) were selected as the subjects of these assays. Various salts at different concentrations, including 150 mM NaCl, 4.5 mM KCl, 6 μM NH4Cl, 1 mM MgCl2, […], […], and 10% serum (Gibco, Auckland, New Zealand), were added to the MHB medium for the examination of the MIC values which were determined as described in Section 2.7.

Test [7] has as its system E. coli (ATCC BAA-2340). Kind of test: microbe, parasite or virus in culture. It is filed as cell-based, Escherichia coli. As to conditions: for MBC: ATCC BAA-2340, 18 h; for MIC: ATCC BAA-2340, 24 h. As to the method: as §1
Test [8] deals with E. coli (ATCC CRM 8739). Kind of test: microbe, parasite or virus in culture. It is filed as cell-based, Escherichia coli. As to conditions: for MBC: ATCC CRM 8739, 18 h; for MIC: ATCC CRM 8739, 24 h. How it is done: as §1

Values after ≈ are worked out from the molar mass of the structure shown. Where two headings read alike, the source gives them in different places. Non-standard residues stand in square brackets, D forms with d. Residues, ends and D or L forms follow the SMILES beside them. No end group written: not given here.

In the case of `CC[C@@H](C)[C@@H](NC(=O)[C@H](CCCCN)NC(=O)[C@@H]1CCCN1C(=O)[C@H](CC(C)C)NC(=O)[C@H](CC(C)C)NC(=O)[C@H](CO)NC(=O)[C@H](CO)NC(=O)[C@H](CC(C)C)NC(=O)[C@H](C)NC(=O)CNC(=O)[C@H](NC(=O)[C@H](NC(=O)[C@H](CC(C)C)NC(=O)[C@@H]1CCCN1C(=O)[C@H](CC(C)C)NC(=O)[C@@H](N)Cc1ccccc1)[C@H](C)CC)[C@H](C)CC)C(=O)N[C@@H](Cc1ccccc1)C(N)=O` [Temporin-PKE-3i] (H-FLPL[dI][dI]GALSSLLPK[dI]F-NH2), in test [1], the MBIC turned out to be 128 µM. In test [2], this compound gave an MBC of 64 µM (≈ 118 µg/mL) and an MIC of 64 µM (≈ 118 µg/mL). Also, in test [3], the MBC came to 64 µM (≈ 118 µg/mL) and the MIC worked out at 64 µM (≈ 118 µg/mL). Besides, the MBC in test [4] (read-out: MBC) is given as above 512 µM. The MIC in test [4] (read-out: MIC) was above 512 µM. The MBC in test [5] (read-out: MBC) is listed as above 512 µM. Also, in test [5] (read-out: MIC), the MIC was above 512 µM. For the same compound, in test [6], the “MIC against K. pneumoniae in the presence of 4 µM FeCl3” value (“MIC … of 4 µM FeCl3” below) is above 512 µM, the “MIC against K. pneumoniae in the presence of 6 µM NH4Cl” value (from here on “MIC … of 6 µM NH4Cl”) is above 512 µM, the “MIC against K. pneumoniae in the presence of 8 µM ZnCl2” value (shortened to “MIC … of 8 µM ZnCl2”) is above 512 µM and the “MIC against K. pneumoniae in the presence of 1 mM MgCl2” value (“MIC … of 1 mM MgCl2” below) was above 512 µM. Also, in test [6], the “MIC against K. pneumoniae in the presence of 2 mM CaCl2” value (from here on “MIC … of 2 mM CaCl2”) is above 512 µM, the “MIC against K. pneumoniae in the presence of 4.5 mM KCl” value (shortened to “MIC … of 4.5 mM KCl”) is above 512 µM, the “MIC against K. pneumoniae in the presence of 150 mM NaCl” value (“MIC … of 150 mM NaCl” below) was above 512 µM and the “MIC against K. pneumoniae in the presence of 10% FBS” value (shortened to “MIC … of 10% FBS”) is above 512 µM. The “MIC against K. pneumoniae, Negative” value in test [6] is above 512 µM. For the same compound, the MBC in test [7] (read-out: MBC) was above 512 µM. Besides, the MIC in test [7] (read-out: MIC) is recorded as above 512 µM. For the same compound, in test [8] (read-out: MBC), the MBC is above 512 µM. In addition, the MIC in test [8] (read-out: MIC) was above 512 µM.
In test [1], `CC[C@@H](C)[C@@H](NC(=O)[C@H](CCCCN)NC(=O)[C@@H]1CCCN1C(=O)[C@H](CC(C)C)NC(=O)[C@H](CC(C)C)NC(=O)[C@H](CO)NC(=O)[C@H](CO)NC(=O)[C@H](CC(C)C)NC(=O)[C@H](C)NC(=O)CNC(=O)[C@@H](NC(=O)[C@@H](NC(=O)[C@H](CC(C)C)NC(=O)[C@@H]1CCCN1C(=O)[C@H](CC(C)C)NC(=O)[C@@H](N)Cc1ccccc1)[C@@H](C)CC)[C@@H](C)CC)C(=O)N[C@@H](Cc1ccccc1)C(N)=O` [Temporin-PKE-i] (H-FLPLIIGALSSLLPK[dI]F-NH2) gave an MBIC of 4 µM. Besides, in test [2], the MBC was found to be 4 µM (≈ 7.37 µg/mL) and the MIC turned out to be 4 µM (≈ 7.37 µg/mL). In test [3], this compound returned an MBC of 4 µM (≈ 7.37 µg/mL) and an MIC of 4 µM (≈ 7.37 µg/mL). The MBC in test [4] (read-out: MBC) was above 512 µM. Also, the MIC in test [4] (read-out: MIC) is reported as above 512 µM. Moreover, the MBC in test [5] (read-out: MBC) is above 512 µM. Besides, in test [5] (read-out: MIC), the MIC is listed as above 512 µM. Besides, in test [6], the “MIC … of 4 µM FeCl3” value is above 512 µM, the “MIC … of 6 µM NH4Cl” value was above 512 µM, the “MIC … of 8 µM ZnCl2” value is above 512 µM and the “MIC … of 1 mM MgCl2” value was above 512 µM. Further, in test [6], the “MIC … of 2 mM CaCl2” value is above 512 µM, the “MIC … of 4.5 mM KCl” value is above 512 µM, the “MIC … of 150 mM NaCl” value was above 512 µM and the “MIC … of 10% FBS” value is above 512 µM. In addition, the “MIC against K. pneumoniae, Negative” value in test [6] was above 512 µM. Moreover, the MBC in test [7] (read-out: MBC) is on record as above 512 µM. The MIC in test [7] (read-out: MIC) is given as above 512 µM. Moreover, the MBC in test [8] (read-out: MBC) is on record as above 512 µM. Also, in test [8] (read-out: MIC), the MIC is given as above 512 µM.
FLPKIIGKLSSKLPKIF-NH2 [Temporin-PKE-4K] displayed an MBIC in test [1] of 256 µM. In test [2], the MBC was found to be 32 µM and the MIC came out at 32 µM. In test [3], this compound showed an MBC of 16 µM and an MIC of 16 µM. In test [4], the MBC is 64 µM and the MIC turned out to be 64 µM. In test [5], this compound yielded an MBC of 32 µM and an MIC of 32 µM. In test [6], the “MIC … of 4 µM FeCl3” value was 16 µM, the “MIC … of 6 µM NH4Cl” value stood at 16 µM, the “MIC … of 8 µM ZnCl2” value turned out to be 16 µM and the “MIC … of 1 mM MgCl2” value came to 64 µM. Further, in test [6], the “MIC … of 2 mM CaCl2” value stood at 128 µM, the “MIC … of 4.5 mM KCl” value is 16 µM, the “MIC … of 150 mM NaCl” value is 64 µM and the “MIC … of 10% FBS” value turned out to be 64 µM. In test [6], the “MIC against K. pneumoniae, Negative” value worked out at 16 µM. The MBC in test [7] (read-out: MBC) amounted to 64 µM. Further, in test [7] (read-out: MIC), the MIC was found to be 32 µM. Also, in test [8], the MBC was found to be 4 µM and the MIC turned out to be 4 µM.
Compound FLPKIIGKLSSLLPKIF-NH2 [Temporin-PKE-3K] returned an MBIC in test [1] of 4 µM. The MBC in test [2] is reported as 2/2 μM. Moreover, the MIC in test [2] (read-out: MIC) is listed as 2 µM. Moreover, in test [3], the MBC turned out to be 2 µM and the MIC amounted to 2 µM. In test [4], the MBC is 16 µM and the MIC was 16 µM. In test [5], the MBC is 8 µM and the MIC was 8 µM. Moreover, in test [6], the “MIC … of 4 µM FeCl3” value was 16 µM, the “MIC … of 6 µM NH4Cl” value was 4 µM, the “MIC … of 8 µM ZnCl2” value was found to be 4 µM and the “MIC … of 1 mM MgCl2” value is 16 µM. Besides, in test [6], the “MIC … of 2 mM CaCl2” value was 16 µM, the “MIC … of 4.5 mM KCl” value is 4 µM, the “MIC … of 150 mM NaCl” value came to 16 µM and the “MIC … of 10% FBS” value was 16 µM. For the same compound, the “MIC against K. pneumoniae, Negative” value in test [6] stood at 4 µM. In test [7], this compound showed an MBC of 2 µM and an MIC of 2 µM. Further, in test [8], the MBC is 2 µM and the MIC was determined as 2 µM.
